This is an account of results in patent publication US12521440B2, “Degradation of bruton's tyrosine kinase (BTK) by conjugation of BTK inhibitors with E3 ligase ligand and methods of use” (BeOne Medicines I GmbH, priority 2021, dated 2026).

pIC50: −log10 of the molar value. Where a name gives a salt, the structure may show the parent alone. Some results are limits rather than exact numbers.

One experiment concerns HEK-293 cells. Briefly: HEK-293 cytotoxicity detection (CellTiter-Glo). The experiment is classed as cell-based. Conditions: Homo sapiens, 72 h incubation, read-out: HEK293.
Description: (§1) The IC50 (DC50) value of a compound can be obtained by fitting the following equation Y=Bottom+(TOP−Bottom)/(1+((IC50/X)^hillslope)) wherein, X and Y are known values, and IC50, Hillslope, Top and Bottom are the parameters obtained by fitting with software. Y is the inhibition percentage (calculated from the equation), X is the concentration of the compound; IC50 is the concentration of the compound when the 50% inhibition is reached. The smaller the IC50 value is, the stronger the inhibitory ability of the compound is. Vice versa, the higher the IC50 value is, the weaker the ability the inhibitory ability of the compound is; Hillslope represents the slope of the fitted curve, generally around 1*; Bottom represents the minimum value of the curve obtained by data fitting, which is generally 0%±20%; Top represents the maximum value of the curve obtained by data fitting, which is generally 100%±20%. The experimental data were fitted by calculating and analyzing with Dotmatics data analysis software. HEK-293 Cell Treatment
HEK-293 cells were treated with compounds diluted in 0.2% DMSO, dilution was done according to the following protocol: (1) making 500×stock solution in DMSO from 5 mM by 4-fold dilution, total 8 doses were included; (2) making 2×solution in cell culture medium by transferring 0.5 ul 500×stock solution into 125 ul medium; (3) adding 50 ul of 2×solution to cells for incubation of 72 h.
25 μl of the CellTiter-Glo® Reagent [(Promega)—Cat No. G7572] was added to each well in the 96-well plate. The contents were mixed for 2 minutes on an orbital shaker to induce cell lysis. The plate was then allowed to incubate at room temperature for 10 minutes to stabilize luminescent signal. Luminescence was recorded on BMG PheraStar with luminescence protocol.
as §1, with “IC50” for “IC50 (DC50)”, “Wherein,” for “wherein,”, “software.” for “software. HEK-293 Cell Treatment”
For orientation: ATP-based viability assays read luminescence as a measure of living cells.

The target in another experiment is T1, BTK (Homo sapiens, UniProt Q06187).
T1 construct: endogenous in cells; host or cells: TMD-8 cells
Briefly: BTK degradation in TMD-8 cells (HTRF assay). The experiment is classed as cell-based. Conditions: 6 h treatment, HTRF BTK degradation IC50 (DC50). The procedure:
TMD-8 cells were treated with compounds diluted in 0.2% DMSO, dilution was done according to the following protocol: (1) making 500×stock solution in DMSO from 1 mM by 6-fold dilution, total 8 doses were included; (2) making 2×solution in cell culture medium by transferring 0.5 μl 500×stock solution into 125 μl medium; (3) adding 15 μl of 2×solution to cells for incubation of 6 h.
After 6 h treatment, 10 μl 4×lysis buffer was added to each well; the plate was sealed and incubated for 30 min at room temperature on a plate shaker; Once the cells was lysed, 16 μL of cell lysate were transferred to a PE 384-well HTRF detection plate; 4 μL of pre-mixed HTRF antibodies were added to each well; the plate was covered with a plate sealer, and then spinned at 1000 rpm for 1 min, then incubated overnight at room temperature; the results were read on BMG PheraStar with HTRF protocol (337 nm-665 nm-620 nm).
as §1
For orientation: In TR-FRET formats the signal depends on donor and acceptor labels being close together.

T1 sequence (Q06187 whole entry): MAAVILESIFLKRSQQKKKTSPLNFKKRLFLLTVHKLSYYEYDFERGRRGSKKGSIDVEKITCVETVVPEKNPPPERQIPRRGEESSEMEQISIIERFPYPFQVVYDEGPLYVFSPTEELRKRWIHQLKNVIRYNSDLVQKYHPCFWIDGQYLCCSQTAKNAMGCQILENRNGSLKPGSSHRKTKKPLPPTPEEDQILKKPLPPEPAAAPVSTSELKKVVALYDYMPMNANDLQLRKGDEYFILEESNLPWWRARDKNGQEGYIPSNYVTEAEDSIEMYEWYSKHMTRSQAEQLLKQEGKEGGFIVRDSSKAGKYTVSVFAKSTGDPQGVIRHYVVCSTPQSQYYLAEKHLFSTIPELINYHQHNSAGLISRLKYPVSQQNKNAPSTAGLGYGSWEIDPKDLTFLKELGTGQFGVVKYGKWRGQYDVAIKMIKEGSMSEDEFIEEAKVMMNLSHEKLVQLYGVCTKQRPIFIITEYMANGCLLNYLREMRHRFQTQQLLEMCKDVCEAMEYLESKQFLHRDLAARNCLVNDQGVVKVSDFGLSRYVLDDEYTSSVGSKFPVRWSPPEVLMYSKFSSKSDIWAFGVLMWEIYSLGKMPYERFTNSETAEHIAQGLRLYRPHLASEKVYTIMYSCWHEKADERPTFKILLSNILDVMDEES

On to `Cc1cc(-c2cc(Nc3ccc(N4CCN(C5CN(c6ccc(N7CCC(=O)NC7=O)cc6)C5)CC4)cn3)ncn2)ccc1[C@@H](C)NC(=O)c1nc(C2(C)CC2)no1` [Example 12, (R)—N-(1-(4-(6-((5-(4-(1-(4-(2,4-dioxotetrahydropyrimidin-1(2H)-yl)phenyl)azetidin-3-yl)piperazin-1-yl)pyridin-2-yl)amino)pyrimidin-4-yl)-2-methylphenyl)ethyl)-3-(1-methylcyclopropyl)-1,2,4-oxadiazole-5-carboxamide], for which, in the experiment on HEK-293 cells, the pIC50 was below 5.00. In addition, the DC50 at BTK amounted to 1.28 nM.

With `COc1cc(Nc2cc(-c3ccc([C@@H](C)NC(=O)c4nc(C(C)(C)C)no4)c(C)c3)ncn2)ncc1N1CCN(CC2CCN(c3ccc(N4CCC(=O)NC4=O)cc3)CC2)CC1` [Example 64, (R)-3-(tert-butyl)-N-(1-(4-(6-((5-(4-((1-(4-(2,4-dioxotetrahydropyrimidin-1(2H)-yl)phenyl)piperidin-4-yl)methyl)piperazin-1-yl)-4-methoxypyridin-2-yl)amino)pyrimidin-4-yl)-2-methylphenyl)ethyl)-1,2,4-oxadiazole-5-carboxamide], the pIC50 in the experiment with HEK-293 cells was below 5.00. The molecule also came in with a DC50 at BTK of 26 nM.

In the case of `Cc1cc(-c2cc(Nc3ccc(N4CCN(CC5CN(c6ccc(C7CCC(=O)NC7=O)cc6)C5)CC4)cn3)ncn2)ccc1[C@@H](C)NC(=O)c1nc(C(C)(C)C)no1` (stereo partly drawn) [Example 19, 3-(tert-butyl)-N-((1R)-1-(4-(6-((5-(4-((1-(4-(2,6-dioxopiperidin-3-yl)phenyl)azetidin-3-yl)methyl)piperazin-1-yl)pyridin-2-yl)amino)pyrimidin-4-yl)-2-methylphenyl)ethyl)-1,2,4-oxadiazole-5-carboxamide], the pIC50 with HEK-293 cells is below 5.00. The molecule also showed a half-maximal degradation concentration (DC50) on BTK of 2.51 nM.

Consider `Cc1cc(-c2cc(Nc3ccc(N4CCN(CC5CCN(c6ccc(N7CCC(=O)NC7=O)cc6)CC5)CC4)cn3)ncn2)ccc1[C@@H](C)NC(=O)c1nc(C(C)(C)C)no1` [Example 16, (R)-3-(tert-butyl)-N-(1-(4-(6-((5-(4-((1-(4-(2,4-dioxotetrahydropyrimidin-1(2H)-yl)phenyl)piperidin-4-yl)methyl)piperazin-1-yl)pyridin-2-yl)amino)pyrimidin-4-yl)-2-methylphenyl)ethyl)-1,2,4oxadiazole-5-carboxamide], for which, in the experiment on HEK-293 cells, the pIC50 was below 5.00. At BTK, this molecule gave a DC50 of 1.29 nM.

Turning to `Cc1cc(-c2cc(Nc3ccc(N4CCN(CC5CCN(c6ccc(N7CCC(=O)NC7=O)cc6)CC5)CC4)cc3)ncn2)c(F)cc1[C@@H](C)NC(=O)c1nc(C(C)(C)C)no1` [Example 1, (R)-3-(tert-butyl)-N-(1-(4-(6-((4-(4-((1-(4-(2,4-dioxotetrahydropyrimidin-1(2H)-yl)phenyl)piperidin-4-yl)methyl)piperazin-1-yl)phenyl)amino)pyrimidin-4-yl)-5-fluoro-2-methylphenyl)ethyl)-1,2,4-oxadiazole-5-carboxamide], in the experiment on HEK-293 cells, the pIC50 is below 5.00. This molecule displayed a 50% degradation concentration (DC50) on BTK of 21.3 nM.

Regarding `Cc1cc(-c2cc(Nc3ccc(N4CCN(CC5CCN(c6ccc(CN7CCC(=O)NC7=O)cc6)CC5)CC4)cn3)ncn2)ccc1[C@@H](C)NC(=O)c1nc(C(C)(C)C)no1` [Example 59, (R)-3-(tert-butyl)-N-(1-(4-(6-((5-(4-((1-(4-((2,4-dioxotetrahydropyrimidin-1(2H)-yl)methyl)phenyl)piperidin-4-yl)methyl)piperazin-1-yl)pyridin-2-yl)amino)pyrimidin-4-yl)-2-methylphenyl)ethyl)-1,2,4-oxadiazole-5-carboxamide], the pIC50 in the experiment on HEK-293 cells is below 5.00. At BTK, the DC50 worked out at 10.2 nM.

With `Cc1cc(-c2cc(Nc3ccc(N4CCN(C(=O)C5CN(c6ccc(C7CCC(=O)NC7=O)cc6)C5)CC4)cn3)ncn2)ccc1[C@@H](C)NC(=O)c1nc(C(C)(C)C)no1` (stereo partly drawn) [Example 26, 3-(tert-butyl)-N-((1R)-1-(4-(6-((5-(4-(1-(4-(2,6-dioxopiperidin-3-yl)phenyl)azetidine-3-carbonyl)piperazin-1-yl)pyridin-2-yl)amino)pyrimidin-4-yl)-2-methylphenyl)ethyl)-1,2,4-oxadiazole-5-carboxamide], the pIC50 in the experiment on HEK-293 cells is below 5.00. The same molecule registered a DC50 on BTK of 0.899 nM.

For `Cc1cc(-c2cc(Nc3ccc(N4CCN(CC5CCN(c6ccc(N7CCC(=O)NC7=O)cc6)CC5)CC4)cn3)ncn2)ccc1[C@@H](C)NC(=O)c1nc(C2(C)CC2)no1` [Example 11, (R)—N-(1-(4-(6-((5-(4-((1-(4-(2,4-dioxotetrahydropyrimidin-1(2H)-yl)phenyl)piperidin-4-yl)methyl)piperazin-1-yl)pyridin-2-yl)amino)pyrimidin-4-yl)-2-methylphenyl)ethyl)-3-(1-methylcyclopropyl)-1,2,4-oxadiazole-5-carboxamide], in the experiment on HEK-293 cells, the pIC50 is below 5.00. The DC50 at BTK is 1.21 nM.

With `Cc1cc(-c2cc(Nc3cc(C)c(N4CCN(CC5CCN(c6ccc(N7CCC(=O)NC7=O)cc6)CC5)CC4)cn3)ncn2)ccc1[C@@H](C)NC(=O)c1nc(C(C)(C)C)no1` [Example 62], in the experiment on HEK-293 cells, the pIC50 was below 5.00. Further, half-maximal degradation at BTK (DC50) was put at 12.3 nM.

In the case of `Cc1cc(-c2cc(Nc3ccc(N4CCN(CCc5cccc6c5oc(=O)n6C5CCC(=O)NC5=O)CC4)cn3)ncn2)ccc1[C@@H](C)NC(=O)c1nc(C(C)(C)C)no1` (stereo partly drawn) [Example 51, 3-(tert-butyl)-N-((1R)-1-(4-(6-((5-(4-(2-(3-(2,6-dioxopiperidin-3-yl)-2-oxo-2,3-dihydrobenzo[d]oxazol-7-yl)ethyl)piperazin-1-yl)pyridin-2-yl)amino)pyrimidin-4-yl)-2-methylphenyl)ethyl)-1,2,4-oxadiazole-5-carboxamide formate], the pIC50 with HEK-293 cells was below 5.00. This molecule displayed a half-maximal degradation concentration (DC50) on BTK of 1.35 nM.

For `Cc1cc(-c2cc(Nc3ccc(N4CCN(CCC5CCN(c6ccc(C7CCC(=O)NC7=O)c(F)c6)CC5)CC4)cc3)ncn2)c(F)cc1[C@@H](C)NC(=O)c1nc(C(C)(C)C)no1` (stereo partly drawn) [Example 4, 3-(tert-butyl)-N-((1R)-1-(4-(6-((4-(4-(2-(1-(4-(2,6-dioxopiperidin-3-yl)-3-fluorophenyl)piperidin-4-yl)ethyl)piperazin-1-yl)phenyl)amino)pyrimidin-4-yl)-5-fluoro-2-methylphenyl)ethyl)-1,2,4-oxadiazole-5-carboxamide], the pIC50 with HEK-293 cells was below 5.00. The molecule further had a DC50 at BTK of 16.9 nM.

As to `Cc1cc(-c2ccnc(Nc3ccc(N4CCN(CC5CCN(c6ccc(N7CCC(=O)NC7=O)cc6)CC5)CC4)c(F)n3)n2)ccc1[C@@H](C)NC(=O)c1nc(C(C)(C)C)no1` [Example 66, (R)-3-(tert-butyl)-N-(1-(4-(2-((5-(4-((1-(4-(2,4-dioxotetrahydropyrimidin-1(2H)-yl)phenyl)piperidin-4-yl)methyl)piperazin-1-yl)-6-fluoropyridin-2-yl)amino)pyrimidin-4-yl)-2-methylphenyl)ethyl)-1,2,4-oxadiazole-5-carboxamide], the pIC50 with HEK-293 cells is below 5.00. Also, the 50% degradation concentration (DC50) at BTK was determined as 2.93 nM.

With `Cc1cc(-c2cc(Nc3ccc(N4CCN(CC5CCN(c6ccc(N7CCC(=O)NC7=O)cc6)CC5)CC4)nc3)ncn2)ccc1[C@@H](C)NC(=O)c1nc(C(C)(C)C)no1` [Example 13, (R)-3-(tert-butyl)-N-(1-(4-(6-((6-(4-((1-(4-(2,4-dioxotetrahydropyrimidin-1(2H)-yl)phenyl)piperidin-4-yl)methyl)piperazin-1-yl)pyridin-3-yl)amino)pyrimidin-4-yl)-2-methylphenyl)ethyl)-1,2,4-oxadiazole-5-carboxamide], in the experiment on HEK-293 cells, the pIC50 was below 5.00. On BTK, the DC50 is 32.7 nM.

In general, DC50 refers to the concentration giving 50% degradation. Low readings indicate a more potent degrader, high ones a less potent degrader.
